Measurements taken from patent US20220339285A1, “DISSACHARIDE FORMULATIONS FOR CONTROLLED DRUG RELEASE” (TECHNICAL UNIVERSITY OF DENMARK, priority 2019, published 2022).
One block for each compound: values may come before it.

How the values were obtained:
[1] = Tested solubility of APIs in carbohydrate ester gels (Example 21); conditions: in the gel formulations listed for each API in Table 8; maximal solubility may be higher than tested
Procedure: Compositions are given in weight percent (or weight ratio) and each compound is weighed into one vial. The mixture is placed in an ultrasonication bath at 70-80° C. for 1-2 hours and occasionally vortexed to generate homogenous solutions that is subsequently stored at 4° C. until further use. Afterwards, all active pharmaceutical ingredients (APIs) are incorporated into the gels proportionally by adding gel on top of freeze-dried APIs or combinations of freeze-dried APIs. The gel is subjected to magnetic stirring at 40-50° C. until the API or combination of APIs is completely dissolved. The gel-API mixture is transferred and stored in sealed vials at room temperature or at 4° C. Certain gel-API mixtures may be stored at −20° C.

[2] = Solubility and integrity of CLA-1 and CLA-8 in SuBen and LOIB gels (Example 22); format: physicochemical; conditions: weight percentage
Procedure: HPLC assay: Samples were analyzed using a Shimadzu Nexera-i instrument. […] Chromatographic separation was achieved using a gradient of 40 to 100% phase B in 10 min. Ultraviolet detection at 280 nm was used to identify the CT contrast agents. Gel samples were prepared by dilution of 50 μL gel in 1 mL MeCN, which were then diluted 10-fold in MeCN.

[3] = In vitro release of DOX base from SuBen and LOIB gels, fluorescence (Example 33); format: physicochemical; conditions: 7 days at 37° C
Procedure: The vials were incubated at 37° C. After 7 days, 1 mL of PBS was taken and analysed by fluorescence spectroscopy.
Fluorescence spectroscopy: Fluorescence measurements were taken by a Tecan fluorescence microplate reader using 96-well, transparent Nunc plates. Sample volume was 200 μL.

[4] = Experimentally obtained drug solubilities in gels; format: physicochemical
Excerpt: Experimentally obtained drug solubilities are given in the table (all percentages are weight %).

[5] = In vitro release of RepSox and Galunisertib from LOIB based gels into PBS (Example 14); conditions: for cumulative release: after 14 days, 8 mg/gram in 82.5 (% w/w) LOIB gel, 100 μL in 2 ml PBS
Procedure: Following, 100 μL of each gel were injected in duplicates into 2 ml of PBS.

[6] = In vitro release of Gardiquimod and Resiquimod from SuBen gels with different co-solvents, HPLC (Example 28); format: physicochemical; conditions: 49 days; for in vitro release of Gardiquimod: 1.2 mg/g, PBS 37° C
Procedure: SuBen:GTO:EtOH (60:25:15 (% w/w)) and SuBen:Lipiodol:EtOH (60:25:15 (% w/w)) were prepared by simple mixing and sonication (80° C., 90-120 min) as described in example 19. […] SuBen:GTO:EtOH:PLA (60:25:15:0.5 (% w/w)), SuBen:Ethyl-palmitate:EtOH (60:25:15 (% w/w)), and SuBen:Ethyl-oleate:EtOH (60:25:15 (% w/w)) were prepared by simple mixing and sonication (80° C., 90-120 min) as described in example 19. […] The vials are closed with lids and are incubated at 37° C. At each sampling point, take 1 mL of buffer and place it inside an Eppendorf tube. Then add 1 mL of fresh buffer to replace the taken sample. The samples are analyzed by HPLC. […] For both compounds, the flowrate was 1 mL/min and the column temperature was 40° C.

[7] = Co-solubilization of R848 and RepSox in LOIB gel (Example 15); format: physicochemical; conditions: with 2.4 mg R848
Procedure: The mixture was solubilized using a magnetic stirring for 2 hours at 40-50° C. under continuous visual inspection.

[8] = In vivo release of TGFb inhibitors from intratumoral gel depots (Example 32); conditions: 8 mg/g, 50 μL intratumoral, CT26 tumors, 7 days
Procedure: Animal handling: For each formulation 50 μL of gel was injected intratumorally in female Balb/c mice with CT26 tumors (Initial tumor volume of approximately 200 mm^3). The mice were sacrificed at different time points and gel samples were collected. The gels were stored at 4° C. until analysis. For each gel, four mice were sacrificed at each timepoint.
Samples were heated to 50° C. and stirred at 600 rpm to promote dissolution. The samples were subsequently filtered through 0.45 μm pore, nylon syringe filters.
HPLC method: Samples were analyzed on a Shimadzu Nexera-i HPLC. […] The solvent system consisted of mobile phase A (5% MeCN, 0.1% TFA in water) and mobile phase B (0.1% TFA in MeCN). Chromatographic separation was achieved using an optimized gradient.

[9] = gel composition e.g LOIB 82.5%, SuBen 60%

SMILES: COc1ccc(CNC(=O)Nc2ncc([N+](=O)[O-])s2)cc1 [AR-A014418]
Tested solubility in gels [1]: 1 mg/g gel

SMILES: O=C(OCC1OC(OC(=O)c2ccc(I)cc2)C(OC(=O)c2ccc(I)cc2)[C@@H](OC(=O)c2ccc(I)cc2)[C@@H]1O[C@@H]1OC(COC(=O)c2ccc(I)cc2)[C@H](OC(=O)c2ccc(I)cc2)[C@H](OC(=O)c2ccc(I)cc2)C1OC(=O)c1ccc(I)cc1)c1ccc(I)cc1 (stereo partly drawn) [CLA-8, α,β Lactose octa para-iodobenzoate]
CLA-8 completely solubilized in LOIB gels [2]: up to 10%
CLA-8 completely solubilized in SuBen gels [2]: up to 20%

SMILES: COc1cccc2c1C(=O)c1c(O)c3c(c(O)c1C2=O)C[C@@](O)(C(=O)CO)C[C@@H]3O[C@H]1C[C@H](N)[C@H](O)[C@H](C)O1 [DOX base, doxorubicin]
release from gels into PBS [3]: released from the gels

SMILES: CCNCc1nc2c(N)nc3ccccc3c2n1CC(C)(C)O [Gardiquimod]
reduction of Gardiquimod release on substitution of GTO with Lipiodol [6]: 6 fold
in vitro release of Gardiquimod ([6]; SuBen:GTO:EtOH (60:25:15) gel): 52.5%
in vitro release of Gardiquimod ([6]; SuBen:Lipiodol:EtOH (60:25:15) gel): 8.4%
Solubility [4, 9]: >1.5 mg/g gel

SMILES: CC(C)Cn1cnc2c(N)nc3ccccc3c21 [Imiquimod]
Solubility ([4]; gel composition e.g SuBen 60%): >4.8 mg/g gel

SMILES: CCOCc1nc2c(N)nc3ccccc3c2n1CC(C)(C)O [Resiquimod (R848), Resiquimod]
Solubility [4, 9]: >10 mg/g gel

SMILES: CC1(N)CCN(c2cnc(-c3cccc(Cl)c3Cl)c(N)n2)CC1 [SHP099]
Solubility ([4]; gel composition e.g SuBen 60%): >1 mg/g gel

Continued, values first:

Tested solubility in gels [1]: 8 mg/g gel
Solubility [4, 9]: >8 mg/g gel
solubilized in LOIB-based gel formulations [5]: ≥ 8 mg/gram
cumulative release [5]: 27%
SMILES: Cc1cccc(-c2nn3c(c2-c2ccnc4ccc(C(N)=O)cc24)CCC3)n1 [Galunisertib]

dissolved together with R848 in LOIB:GTO:EtOH (82.5:7.5:10) gel [7]: 8 mg/g
Solubility [4, 9]: >8 mg/g gel
in vivo release from gel depot (ranking) [8]: fastest release
cumulative release [5]: around 40%
SMILES: Cc1cccc(-c2[nH]ncc2-c2ccc3ncccc3n2)n1 [RepSox]

Solubility ([4]; gel composition e.g SuBen 60%): >8 mg/g gel
Solubility ([4]; gel composition e.g SuBen:LOIB 35%/35%): >8 mg/g gel
SMILES: Fc1ccc(Cl)cc1-c1nc(Nc2ccncc2)c2nccnc2n1 [SD-208]
